Values of other authors in patent US20120208745A1, “TREATMENT OF HIV” (priority 2006, published 2012).
Read-outs that look alike come from different tables or passages of the source.

What was measured:
[1] = tested on: IL-1; settings: whole blood of HIV patients stimulated with LPS; concentration-dependent
[2] = tested on: TNF-α; settings: whole blood of HIV patients stimulated with LPS; concentration-dependent
[3] = tested on: TNF-α; settings: normal PBMC, induced by HIV envelope glycoprotein gp 120
[4] = tested on: IL-1β; settings: normal PBMC, induced by HIV envelope glycoprotein gp 120

Row | Substance | production of IL-1 [1] | production of TNF-α [2] | production of TNF-α [3] | production of IL-1β [4]
1 | ACTH (1-24): Melanocortin peptide, fragment 1-24 of adrenocorticotropic hormone (SYSMEHFRWGKPVGKKRRPVKVYP; Corticotropin; UniProt P01189 138-161, looked up, fragment) | reduced | reduced |  | 
2 | adrenocorticotropic hormone [ACTH (1-39)] (SYSMEHFRWGKPVGKKRRPVKVYPNGAEDESAEAFPLEF; Corticotropin; UniProt P01189 138-176, looked up) [Proopiomelanocortin-derived melanocortin peptide] | reduced | reduced |  | 
3 | α-melanocyte-stimulating hormone [α-MSH (1-13), α-melanocyte-stimulating hormone [α-MSH (1-13)]] | reduced | reduced | inhibit | inhibit
